{
  "source": "patent US10294234B2",
  "about": "“HIV inhibitor compounds” (priority 2017, dated 2019)",
  "key": {"[1]": {"procedure,_shortened": "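Depletion measured by LC/MS/MS at 2, 12, 25, 45 and 65 minutes after 1 uM compound was added to liver microsomes (0.5 mg/mL; dog, rat, human) with NADPH-regenerating cofactor, in duplicate. In vitro t1/2 converted to Clint.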"}, "[2]": {"test_system": "HIV-1 (IIIB) in MT-4 cells", "assay": "MT-4 HIV assay", "assay_type": "cell-based", "procedure,_shortened": "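Antiviral activity was read by Cell Titer Glo after a 5-day, 37 °C culture of MT-4 cells pre-infected with a 1:250 dilution of HIV-1 (IIIB). Compounds were tested as threefold dilution series in complete RPMI. Controls were no drug, mock infection and 5 uM AZT.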"}, "[3]": {"details": "Human immunodeficiency virus 1, MT4, 120 h, HIV-1 (IIIB), MT-4 cells, 5 days, Cell Titer Glo, read-out: EC50"}, "[4]": {"details": "human liver microsomes 0.5 mg/mL, 1 uM compound, NADPH"}, "[5]": {"details": "rat liver microsomes 0.5 mg/mL, 1 uM compound, NADPH"}, "[6]": {"details": "Human immunodeficiency virus 1, MT4, 120 h"}},
  "note": "pEC50: −log10 of the molar value. Read-outs that look alike come from different tables or passages of the source.",
  "data": [
    {"compound": "COC(=O)N[C@H](C(=O)NNC[C@H](O)[C@H](Cc1ccc(C#Cc2cnc(N3CC4CCC(C3)N4C3COC3)nc2)cc1)NC(=O)[C@@H](NC(=O)OCCc1c(F)cc(-c2cn(C34CC(C3)C4)nn2)cc1F)C(C)(C)C(F)(F)F)C(C)(C)C(F)(F)F", "note": "[Example 131, Methyl ((5S,8S,9S,14S)-1-(4-(1-(bicyclo[1.1.1]pentan-1-yl)-1H-1,2,3-triazol-4-yl)-2,6-difluorobenzyl)-16,16,16-trifluoro-9-hydroxy-15,15-dimethyl-8-(4-((2-(8-(oxetan-3-yl)-3,8-diazabicyclo[3.2.1]octan-3-yl)pyrimidin-5-yl)ethynyl)benzyl)-3,6,13-trioxo-5-(1,1,1-trifluoro-2-methylpropan-2-yl)-2-oxa-4,7,11,12-tetraazahexadecan-14-yl)carbamate]", "values": [
      {"measurement": "Human Pred Cl.", "setting": "[1]; human, microsomes", "value": "<0.11", "unit": "L/H/kg"},
      {"measurement": "pEC50", "setting": "[2]; [3]", "value": 8.28}
    ]},
    {"compound": "Methyl ((5S,8S,9S,14S)-11-(2,6-difluoro-4-(1-methyl-1H-pyrazol-3-yl)benzyl)-16,16,16-trifluoro-9-hydroxy-15,15-dimethyl-8-(4-((6-(8-(oxetan-3-yl)-3,8-diazabicyclo[3.2.1]octan-3-yl)pyridin-3-yl)ethynyl)benzyl-3,6,13-trioxo-5-(1,1,1-trifluoro-2-methylpropan-2-yl)-2-oxa-4,7,11,12-tetraazahexadecan-14-yl)carbamate [Example 128]", "values": [
      {"measurement": "Human Pred Cl.", "setting": "[1]; [4]", "value": 0.15, "unit": "L/H/kg"},
      {"measurement": "Rat. Pred. Cl.", "setting": "[1]; [5]", "value": 0.37, "unit": "L/H/kg"},
      {"measurement": "pEC50", "setting": "[2]; HIV-1 (IIIB), MT-4 cells, 5 days, Cell Titer Glo, read-out: EC50", "value": 8.50}
    ]},
    {"compound": "COC(=O)N[C@H](C(=O)N[C@@H](Cc1ccc(-c2cnn(C(F)F)c2)cc1)[C@@H](O)CN(Cc1c(F)cc(-c2ccn(C(F)F)n2)cc1F)NC(=O)[C@@H](NC(=O)OC)C(C)(C)C(F)(F)F)C(C)(C)C(F)(F)F", "note": "[Example 209, Methyl ((5S,8S,9S,14S)-11-(4-(1-(difluoromethyl)-1H-pyrazol-3-yl)-2,6-difluorobenzyl)-8-(4-(1-(difluoromethyl)-1H-pyrazol-4-yl)benzyl)-16,16,16-trifluoro-9-hydroxy-15,15-dimethyl-3,6,13-trioxo-5-(1,1,1-trifluoro-2-methylpropan-2-yl)-2-oxa-4,7,11,12-tetraazahexadecan-14-yl)carbamate]", "values": [
      {"measurement": "Human Pred Cl.", "setting": "[1]; [4]", "value": 1.12, "unit": "L/H/kg"},
      {"measurement": "Rat. Pred. Cl.", "setting": "[1]; [5]", "value": 1.21, "unit": "L/H/kg"},
      {"measurement": "pEC50", "setting": "[2]; [6]", "value": 8.50}
    ]},
    {"compound": "COC(=O)N[C@H](C(=O)N[C@@H](Cc1ccc(-c2ccn(CC(F)F)n2)cc1)[C@@H](O)CN(Cc1c(F)cc(-c2cnc(N3CC4CCC(C3)N4C3COC3)nc2)cc1F)NC(=O)[C@@H](NC(=O)OC)C(C)(C)C(F)(F)F)C(C)(C)C(F)(F)F", "note": "[Example 212, Methyl ((5S,8S,9S,14S)-11-(2,6-difluoro-4-(2-(8-(oxetan-3-yl)-3,8-diazabicyclo[3.2.1]octan-3-yl)pyrimidin-5-yl)benzyl)-8-(4-(1-(2,2-difluoroethyl)-1H-pyrazol-3-yl)benzyl)-16,16,16-trifluoro-9-hydroxy-15,15-dimethyl-3,6,13-trioxo-5-(1,1,1-trifluoro-2-methylpropan-2-yl)-2-oxa-4,7,11,12-tetraazahexadecan-14-yl)carbamate]", "values": [
      {"measurement": "Human Pred Cl.", "setting": "[1]; human, microsomes", "value": 0.33, "unit": "L/H/kg"},
      {"measurement": "Rat. Pred. Cl.", "setting": "[1]; rat, microsomes", "value": 0.33, "unit": "L/H/kg"},
      {"measurement": "pEC50", "setting": "[2]; [3]", "value": 8.30}
    ]},
    {"compound": "COC(=O)N[C@H](C(=O)N[C@@H](Cc1ccc(C#Cc2ccc(N3CC4CCC(C3)N4C)nc2)cc1)[C@@H](O)CN(Cc1c(F)cc(-c2cnn(C(F)F)c2)cc1F)NC(=O)[C@@H](NC(=O)OC)C(C)(C)C(F)(F)F)C(C)(C)C(F)(F)F", "note": "[Example 168, Methyl ((5S,8S,9S,14S)-11-(4-(1-(difluoromethyl)-1H-pyrazol-4-yl)-2,6-difluorobenzyl)-16,16,16-trifluoro-9-hydroxy-15,15-dimethyl-8-(4-((6-(8-methyl-3,8-diazabicyclo[3.2.1]octan-3-yl)pyridin-3-yl)ethynyl)benzyl)-3,6,13-trioxo-5-(1,1,1-trifluoro-2-methylpropan-2-yl)-2-oxa-4,7,11,12-tetraazahexadecan-14-yl)carbamate]", "values": [
      {"measurement": "Human Pred Cl.", "setting": "[1]; human, microsomes", "value": 0.19, "unit": "L/H/kg"},
      {"measurement": "Rat. Pred. Cl.", "setting": "[1]; rat, microsomes", "value": 2.42, "unit": "L/H/kg"},
      {"measurement": "pEC50", "setting": "[2]; [3]", "value": 8.26}
    ]},
    {"compound": "COC(=O)N[C@H](C(=O)N[C@@H](Cc1ccc(C#Cc2ccc(N3CC4CCC(C3)[N+]4(C)C3COC3)nc2)cc1)[C@@H](O)CN(Cc1c(F)cc(-c2ccn(C(F)F)n2)cc1F)NC(=O)[C@@H](NC(=O)OC)C(C)(C)C(F)(F)F)C(C)(C)C(F)(F)F", "note": "(stereo partly drawn) [Example 48, 3-(5-((4-((2S,3S)-4-(1-(4-(1-(difluoromethyl)-1H-pyrazol-3-yl)-2,6-difluorobenzyl)-2-((S)-4,4,4-trifluoro-2-((methoxycarbonyl)amino)-3,3-dimethylbutanoyl)hydrazinyl)-3-hydroxy-2-((S)-4,4,4-trifluoro-2-((methoxycarbonyl)amino)-3,3-dimethylbutanamido)butyl)phenyl)ethynyl)pyridin-2-yl)-8-methyl-8-(oxetan-3-yl)-3,8-diazabicyclo[3.2.1]octan-8-ium]", "values": [
      {"measurement": "Human Pred Cl.", "setting": "[1]; human, microsomes", "value": "<0.11", "unit": "L/H/kg"},
      {"measurement": "Rat. Pred. Cl.", "setting": "[1]; rat, microsomes", "value": 0.18, "unit": "L/H/kg"},
      {"measurement": "pEC50", "setting": "[2]; [3]", "value": 6.94}
    ]},
    {"compound": "COC(=O)N[C@H](C(=O)N[C@@H](Cc1ccc(C#Cc2ccc(N3CCN(C4COC4)CC3)nc2)cc1)[C@@H](O)CN(Cc1c(F)cc(-c2ccc(F)cn2)cc1F)NC(=O)[C@@H](NC(=O)OC)C(C)(C)C(F)(F)F)C(C)(C)C(F)(F)F", "note": "[Example 97, Methyl ((5S,8S,9S,14S)-11-(2,6-difluoro-4-(5-fluoropyridin-2-yl)benzyl)-16,16,16-trifluoro-9-hydroxy-15,15-dimethyl-8-(4-((6-(4-(oxetan-3-yl)piperazin-1-yl)pyridin-3-yl)ethynyl)benzyl)-3,6,13-trioxo-5-(1,1,1-trifluoro-2-methylpropan-2-yl)-2-oxa-4,7,11,12-tetraazahexadecan-14-yl)carbamate]", "values": [
      {"measurement": "Human Pred Cl.", "setting": "[1]; [4]", "value": 0.46, "unit": "L/H/kg"},
      {"measurement": "Rat. Pred. Cl.", "setting": "[1]; [5]", "value": 0.31, "unit": "L/H/kg"},
      {"measurement": "pEC50", "setting": "[2]; [6]", "value": 8.34}
    ]},
    {"compound": "COC(=O)N[C@H](C(=O)N[C@@H](Cc1ccc(-c2cnc(N3CC4CCC(C3)N4C3COC3)nc2)cc1)[C@@H](O)CN(Cc1c(F)cc(-c2ccn(C3CC3)n2)cc1F)NC(=O)[C@@H](NC(=O)OC)C(C)(C)C(F)(F)F)C(C)(C)C(F)(F)F", "note": "[Example 198, methyl ((5S,8S,9S,14S)-11-(4-(1-cyclopropyl-1H-pyrazol-3-yl)-2,6-difluorobenzyl)-16,16,16-trifluoro-9-hydroxy-15,15-dimethyl-8-(4-(2-(8-(oxetan-3-yl)-3,8-diazabicyclo[3.2.1]octan-3-yl)pyrimidin-5-yl)benzyl)-3,6,13-trioxo-5-(1,1,1-trifluoro-2-methylpropan-2-yl)-2-oxa-4,7,11,12-tetraazahexadecan-14-yl)carbamate]", "values": [
      {"measurement": "Human Pred Cl.", "setting": "[1]; human, microsomes", "value": "<0.11", "unit": "L/H/kg"},
      {"measurement": "Rat. Pred. Cl.", "setting": "[1]; rat, microsomes", "value": 0.33, "unit": "L/H/kg"},
      {"measurement": "pEC50", "setting": "[2]; [3]", "value": 8.66}
    ]},
    {"compound": "COC(=O)N[C@H](C(=O)N[C@@H](Cc1ccc(C#Cc2ccc(N3CC4CC(C3)N4C3COC3)nc2)cc1)[C@@H](O)CN(Cc1c(F)cc(-c2cnn(C(F)F)c2)cc1F)NC(=O)[C@@H](NC(=O)OC)C(C)(C)C(F)(F)F)C(C)(C)C(F)(F)F", "note": "[Example 60, Methyl ((5S,8S,9S,14S)-11-(4-(1-(difluoromethyl)-1H-pyrazol-4-yl)-2,6-difluorobenzyl)-16,16,16-trifluoro-9-hydroxy-15,15-dimethyl-8-(4-((6-(6-(oxetan-3-yl)-3,6-diazabicyclo[3.1.1]heptan-3-yl)pyridin-3-yl)ethynyl)benzyl)-3,6,13-trioxo-5-(1,1,1-trifluoro-2-methylpropan-2-yl)-2-oxa-4,7,11,12-tetraazahexadecan-14-yl)carbamate]", "values": [
      {"measurement": "Human Pred Cl.", "setting": "[1]; human, microsomes", "value": 0.12, "unit": "L/H/kg"},
      {"measurement": "Rat. Pred. Cl.", "setting": "[1]; rat, microsomes", "value": 0.65, "unit": "L/H/kg"},
      {"measurement": "pEC50", "setting": "[2]; [3]", "value": 8.47}
    ]},
    {"compound": "COC(=O)N[C@H](C(=O)N[C@@H](Cc1ccc(C#Cc2ccc(N3CC4CC(CN(C(C)=O)C4)C3)nc2)cc1)[C@@H](O)CN(Cc1c(F)cc(-c2cnn(C(F)F)c2)cc1F)NC(=O)[C@@H](NC(=O)OC)C(C)(C)C(F)(F)F)C(C)(C)C(F)(F)F", "note": "[Example 67, Methyl ((5S,8S,9S,14S)-8-(4-((6-(7-acetyl-3,7-diazabicyclo[3.3.1]nonan-3-yl)pyridin-3-yl)ethynyl)benzyl)-1-(4-(1-(difluoromethyl)-1H-pyrazol-4-yl)-2,6-difluorobenzyl)-16,16,16-trifluoro-9-hydroxy-15,15-dimethyl-3,6,13-trioxo-5-(1,1,1-trifluoro-2-methylpropan-2-yl)-2-oxa-4,7,11,12-tetraazahexadecan-14-yl)carbamate]", "values": [
      {"measurement": "Human Pred Cl.", "setting": "[1]; [4]", "value": 0.41, "unit": "L/H/kg"},
      {"measurement": "Rat. Pred. Cl.", "setting": "[1]; [5]", "value": 1.43, "unit": "L/H/kg"},
      {"measurement": "pEC50", "setting": "[2]; [3]", "value": 8.20}
    ]},
    {"compound": "COC(=O)N[C@H](C(=O)N[C@@H](Cc1ccc(C#Cc2ccc(N3CC4COCC(C3)N4C3COC3)nc2)cc1)[C@@H](O)CN(Cc1c(F)cc(-c2ccccn2)cc1F)NC(=O)[C@@H](NC(=O)OC)C(C)(C)C(F)(F)F)C(C)(C)C(F)(F)F", "note": "[Example 179, Methyl ((5S,8S,9S,14S)-11-(2,6-difluoro-4-(pyridin-2-yl)benzyl)-16,16,16-trifluoro-9-hydroxy-15,15-dimethyl-8-(4-((6-(9-(oxetan-3-yl)-3-oxa-7,9-diazabicyclo[3.3.1]nonan-7-yl)pyridin-3-yl)ethynyl)benzyl)-3,6,13-trioxo-5-(1,1,1-trifluoro-2-methylpropan-2-yl)-2-oxa-4,7,11,12-tetraazahexadecan-14-yl)carbamate]", "values": [
      {"measurement": "Human Pred Cl.", "setting": "[1]; human, microsomes", "value": 0.33, "unit": "L/H/kg"},
      {"measurement": "Rat. Pred. Cl.", "setting": "[1]; rat, microsomes", "value": 0.27, "unit": "L/H/kg"},
      {"measurement": "pEC50", "setting": "[2]; [3]", "value": 8.45}
    ]}
  ]
}
